A word on the AC50: it is the concentration at which the activity in the assay is half-maximal.

Here are results for 47 molecules from patent US9458141B2, “Low molecular weight thyroid stimulating hormone receptor (TSHR) agonists” (The United States of America, as represented by the …, priority 2008, dated 2016).

Each structure is given as a SMILES string. Like-named read-outs stand apart in the source and are kept apart here.

This assay addresses T1, human TSHR (Homo sapiens, UniProt P16473).
T1 construct: expressed in transfected cells
The assay is described as follows: Homogeneous Time Resolved Fluorescence (HTRF) cAMP assay, TSHR cell line. It counts as cell-based. The conditions noted are these: for Maximum Activity compared to TSH: 100% activity = response of 30 mU/ml TSH, 0% = DMSO control, in %; for AC50: HTRF cAMP, TSHR cell line, 30 minute incubation; for Emax: read-out: Maximum Activity compared to TSH, 100% activity = response of 30 mU/ml TSH, 0% = DMSO control. Background: In TR-FRET formats the signal depends on donor and acceptor labels being close together.

T1 sequence (P16473 21-764): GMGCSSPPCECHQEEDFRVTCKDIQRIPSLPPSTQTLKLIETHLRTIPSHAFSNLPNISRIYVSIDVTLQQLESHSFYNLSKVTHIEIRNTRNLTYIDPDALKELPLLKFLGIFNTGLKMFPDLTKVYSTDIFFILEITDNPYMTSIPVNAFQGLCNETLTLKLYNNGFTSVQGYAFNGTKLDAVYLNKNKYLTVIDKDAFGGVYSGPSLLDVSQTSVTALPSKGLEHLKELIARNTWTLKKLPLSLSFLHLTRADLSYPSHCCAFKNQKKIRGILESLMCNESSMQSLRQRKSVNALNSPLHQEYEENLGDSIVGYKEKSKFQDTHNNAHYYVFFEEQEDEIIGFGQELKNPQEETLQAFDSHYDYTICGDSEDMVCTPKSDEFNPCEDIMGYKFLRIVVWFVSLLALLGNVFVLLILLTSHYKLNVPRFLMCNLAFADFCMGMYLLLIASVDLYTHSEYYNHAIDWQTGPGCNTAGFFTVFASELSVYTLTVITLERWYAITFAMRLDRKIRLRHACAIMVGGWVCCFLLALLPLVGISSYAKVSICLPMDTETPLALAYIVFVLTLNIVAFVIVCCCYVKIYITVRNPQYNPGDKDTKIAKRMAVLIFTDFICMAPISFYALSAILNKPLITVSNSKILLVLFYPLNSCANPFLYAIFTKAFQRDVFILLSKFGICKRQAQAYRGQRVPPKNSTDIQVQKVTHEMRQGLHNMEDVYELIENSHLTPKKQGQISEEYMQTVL

Turning to `COc1ccc(C2Nc3ccccc3C(=O)N2Cc2ccncc2)cc1COc1ccc(NC(C)=O)cc1` (centres unmarked) [Structure 132], the “Maximum Activity compared to TSH” value turned out to be 44.00. For the same molecule, the AC50 (read-out: AC50) was found to be 31.6 µM. For the molecule `O=C(c1ccccc1O)N(Cc1cccs1)Cc1cccs1` [Structure 133], the Emax was 55.3%. Besides, the AC50 (read-out: AC50) came to 31.6 µM. With `COc1ccc(CNc2ccccc2C(=O)NCc2ccccc2)cc1COc1ccc(NC(C)=O)cc1` [Structure 134], the “Maximum Activity compared to TSH” value came out at 30.50. Besides, where the note is “read-out: AC50”, the AC50 amounted to 8.91 µM. For the molecule `COc1ccc(CN(Cc2ccccc2)C(=O)Nc2ccccc2)cc1COc1ccc(NC(C)=O)cc1` [Structure 135], the “Maximum Activity compared to TSH” value was determined as 48.07. Regarding `COc1ccc(CN(Cc2ccccc2)C(=O)c2ccc(OC)cc2O)cc1` [Structure 136], the “Maximum Activity compared to TSH” value was determined as 37.00. The AC50 (read-out: AC50) is 28.2 µM. For the molecule `COc1ccc(C2NC(=O)c3ccccc3N2)cc1COc1ccc(NC(C)=O)cc1` (centres unmarked) [Structure 137], the AC50 entry is “inactive”. Regarding `COc1ccc(C2Nc3ccccc3C(=O)N2C2CCCC2)cc1COc1ccc(NC(C)=O)cc1` (centres unmarked) [Structure 138], the Emax amounted to 31.5%. For the same molecule, where the note is “read-out: AC50”, the AC50 was found to be 20 µM.

Regarding `COc1ccc(C2Nc3ccccc3C(=O)N2Cc2ccccc2C)cc1COc1ccc(NC(C)=O)cc1` (centres unmarked) [Structure 139], the AC50 result is “inactive”. As for `COc1ccc(C2Nc3ccccc3C(=O)N2Cc2ccccc2)cc1COc1ccc(Cl)cc1` (centres unmarked) [Structure 140], the AC50 entry was “inactive”. Regarding `COc1ccc(C2Nc3ccccc3C(=O)N2Cc2ccco2)cc1COc1c(C)cccc1C` (centres unmarked) [Structure 141], the AC50 result is “inactive”. As to `O=C(c1ccccc1O)N(Cc1ccccc1)Cc1cccs1` [Structure 142], the Emax is 34%. For the same molecule, where the note is “read-out: AC50”, the AC50 came to 20 µM. On to `CC(C)c1ccc(C2C3=C(CC(c4ccco4)CC3=O)Nc3nc(C(F)(F)F)nn32)cc1` (centres unmarked) [Structure 143], for which the AC50 result was “inactive”. With `CC(=O)Nc1ccc(OCc2cccc(C3Nc4ccccc4C(=O)N3Cc3ccco3)c2)cc1` (centres unmarked) [Structure 144], the AC50 entry was “inactive”. On the same count and under the same terms, the entry for `COc1ccc(CN(Cc2ccccc2)C(=O)CN2CCN(C)CC2)cc1COc1ccc(NC(C)=O)cc1` [Structure 145] is “inactive”; for `COc1ccc(C2Nc3ccccc3C(=O)N2CCCN(C)C)cc1COc1ccc(NC(C)=O)cc1` (centres unmarked) [Structure 146] it is “inactive”; for `O=C1CC(c2ccco2)CC2=C1C(c1cccnc1)n1nc(C(F)(F)F)nc1N2` (centres unmarked) [Structure 147] it is “inactive”. As for `O=C1c2ccccc2NC(c2cc(Br)c3c(c2)OCO3)N1Cc1ccco1` (centres unmarked) [Structure 148], the AC50 result was “inactive”. Consider `CC(=O)Nc1cccc(OCc2cccc(C3Nc4ccccc4C(=O)N3Cc3ccco3)c2)c1` (centres unmarked) [Structure 149], for which the AC50 entry is “inactive”. In the case of `COc1ccc(C2Nc3ccccc3CN2Cc2ccco2)cc1COc1cccc(NC(C)=O)c1` (centres unmarked) [Structure 150], the AC50 result was “inactive”.

With `COc1ccc(C2Nc3ccccc3C(=O)N2Cc2ccco2)cc1COc1cccc(NC(C)=O)c1` (centres unmarked) [Structure 151], the AC50 result was “inactive”.

As to `COc1ccc(C2Nc3ccccc3C(=O)N2Cc2ccccc2)cc1COc1ccc(F)cc1` (centres unmarked) [Structure 152], the AC50 result is “inactive”. The same measure, in the same setting: as for `Nc1ccccc1C(=O)NCc1ccco1` [Structure 153], the entry is “inactive”; as for `O=C(c1ccccc1O)N(Cc1ccco1)Cc1cccs1` [Structure 154], “inactive”. `COc1ccc(-c2nc3ccc(NC(C)=O)cc3c(=O)n2Cc2cccc(Cl)c2)cc1COc1ccc(NC(C)=O)cc1` [Structure 155]: the “Maximum Activity compared to TSH” value was found to be 25.50. The AC50 (read-out: AC50) stood at 12.6 µM.

Regarding `COc1ccc(C2Nc3ccccc3C(=O)N2Cc2ccco2)cc1` (centres unmarked) [Structure 156], the AC50 result is “inactive”.

Consider `O=C1c2ccccc2NC(c2ccccc2O)N1Cc1ccccc1` (centres unmarked) [Structure 157], for which the AC50 entry was “inactive”. In the case of `COc1ccc2c(c1OC)C(=O)N1c3ccccc3C(=O)N(Cc3ccco3)C21` (centres unmarked) [Structure 158], the AC50 entry is “inactive”. Take `CC(=O)Nc1ccc(OCc2cccc(-c3nc4ccccc4c(=O)n3Cc3ccco3)c2)cc1` [Structure 159]: the AC50 entry was “inactive”.

`COc1ccc(C(=O)C2C(=O)C(=O)N(Cc3ccco3)C2c2cccs2)cc1` (centres unmarked) [Structure 160]: the Emax came to 28%. Besides, the AC50 (read-out: AC50) was 50.1 µM.

With `COc1ccc(CN(Cc2ccccc2)C(C)=O)cc1COc1ccc(NC(C)=O)cc1` [Structure 161], the AC50 entry was “inactive”. The same measure, in the same setting: the entry for `COc1ccc(C2Nc3ccccc3C(=O)N2Cc2ccco2)cc1COc1c(C)cccc1C` (centres unmarked) [Structure 162] is “inactive”; for `COc1ccc(C2Nc3ccccc3C(=O)N2Cc2ccccc2)cc1Oc1ccc(NC(C)=O)cc1` (centres unmarked) [Structure 163] it is “inactive”. Take `COc1ccc(C2Nc3ccccc3C(=O)N2Cc2ccccc2)cc1COc1cccc(C(F)(F)F)c1` (centres unmarked) [Structure 164]: the AC50 entry was “inactive”. For `CC(=O)Nc1ccc(OCc2cccc(C3Nc4ccccc4C(=O)N3Cc3ccco3)c2)cc1` (centres unmarked) [Structure 165], the AC50 entry was “inactive”. The same measure, in the same setting: as for `COc1ccc(CN(Cc2ccccc2)C(=O)c2ccc(NC(C)=O)cc2)cc1COc1ccc(NC(C)=O)cc1` [Structure 166], the entry is “inactive”. For the molecule `COc1ccc(C(=O)N(Cc2ccccc2)Cc2ccccc2)cc1COc1ccc(NC(C)=O)cc1` [Structure 167], the “Maximum Activity compared to TSH” value was determined as 24.50. Also, where the note is “read-out: AC50”, the AC50 amounted to 14.1 µM. Turning to `COc1ccc(C(=O)N(Cc2ccccc2)Cc2ccc(OC)c(COc3ccc(NC(C)=O)cc3)c2)c(O)c1` [Structure 168], the AC50 result is “inactive”. Consider `COc1ccc(CN(Cc2ccccc2)C(=O)c2ccccc2O)cc1` [Structure 169], for which the Emax amounted to 34%. Moreover, the AC50 (read-out: AC50) worked out at 50.1 µM. With `COc1ccc(C2Nc3ccccc3C(=O)N2Cc2ccccc2)cc1COc1ccc(C#N)cc1` (centres unmarked) [Structure 170], the AC50 entry was “inactive”.

As to `O=C1CC(c2ccco2)CC2=C1C(c1cccnc1)n1nc(C(F)(F)F)nc1N2` (centres unmarked) [Structure 171], the AC50 result was “inactive”. The same measure, in the same setting: the entry for `COc1ccc(C2Nc3ccccc3C(=O)N2Cc2ccccc2)cc1COc1ccccc1OC` (centres unmarked) [Structure 172] is “inactive”.

As to `COc1ccc(-c2nc3ccccc3c(=O)n2Cc2ccccc2)cc1CNc1ccc(NC(C)=O)cc1` [Structure 173], the Emax came out at 30%. Besides, the AC50 (read-out: AC50) amounted to 15.8 µM. In the case of `O=C1CC(c2ccco2)CC2=C1C(c1ccc(O)cc1)n1nc(C(F)(F)F)nc1N2` (centres unmarked) [Structure 174], the AC50 result is “inactive”. The same measure, in the same setting: as for `COc1ccc(C2Nc3ccccc3C(=O)N2Cc2ccc(C(C)(C)C)cc2)cc1COc1ccc(NC(C)=O)cc1` (centres unmarked) [Structure 175], the entry is “inactive”.

For `CCC(=O)Nc1ccc(OCc2cc(C3Nc4ccccc4C(=O)N3Cc3ccccc3)ccc2OC)cc1` (centres unmarked) [Structure 177], the Emax was 29%. In addition, the AC50 (read-out: AC50) worked out at 5.62 µM. For `COc1ccc(C2Nc3ccccc3C(=O)N2Cc2ccco2)cc1` (centres unmarked) [Structure 178], the AC50 entry was “inactive”. Same read-out and setting: as for `COc1ccc(-c2nc3ccccc3n2Cc2ccccc2)cc1COc1ccc(NC(C)=O)cc1` [Structure 179], the entry is “inactive”.
